Patent US8058395B2, “Chimeric protein comprising a green fluorescent ptotein fused to a transcription factor” (The United States of America as represented by the …, priority 1995, dated 2011)

What was measured:
Assay type in all cases: cell-based
GFP-GR [1] = target: T1, GFP-GR (Rattus norvegicus, UniProt P06536, C656G/D98G); assay: Cytoplasm-to-nuclear translocation of GFP-GR in living transfected murine adenocarcinoma cells (video/confocal microscopy)
T1 construct: expressed in transfected cells; host or cells: 1471.1 cells (murine C127 adenocarcinoma derivative); 3134 cells (C127 derivative) for gene targeting

GFP-GR [2] = target: T1, GFP-GR; assay: Intranuclear accumulation pattern (foci) of GFP-GR, confocal microscopy and 3D reconstruction; conditions: ligand-treated cells
GFP-GR [3] = target: T1, GFP-GR; assay: Activation of endogenous multi-copy MMTV LTR-CAT reporter in 1471.1 cells expressing GFP-GR (ligand specificity); conditions: 4 hrs, dex 1 nM and 10 nM, RU486 10 nM

| SMILES | extent of GFP-GR cytoplasm-to-nuclear translocation (GFP-GR [1]; 10 nM ligand, 30 min at 37° C.) | intranuclear focal accumulation pattern of GFP-GR (GFP-GR [2]) | activation of MMTV LTR-CAT reporter (GFP-GR [3]) | fluorescing cells in which translocation of GFP-GR occurs (GFP-GR [1]) [%] |
| --- | --- | --- | --- | --- |
| C[C@]12CC[C@@H]3c4ccc(O)cc4CC[C@H]3[C@@H]1CC[C@@H]2O [17-β-estradiol] | did not cause intranuclear GFP-GR accumulation | not observed | fails to activate |  |
| C[C@@H]1C[C@H]2[C@@H]3CCC4=CC(=O)C=C[C@]4(C)[C@@]3(F)[C@@H](O)C[C@]2(C)[C@@]1(O)C(=O)CO [dexamethasone] |  |  |  | 100 |
